Test results: patent US20260069581A1, “METHODS AND COMPOSITIONS FOR CANCER THERAPY” (OHIO STATE INNOVATION FOUNDATION, priority 2020, published 2026)

Experiments:
[1] = system: DNA repair genes in patient LICs (CD34+ CD38−); assay: LC-RNA-seq of primary patient LICs; type: cell-based, human
Method: FIG. 5A-5E show representative data that AR-42 and KPT-9274 synergistically alter DNA repair gene sets of LIC transcriptomes. […] Briefly, primary cells from 5 patients were treated with drug combination or vehicle for 12 hours before LICs (CD34^+ CD38^−) were sorted for LC-RNA-seq. […] Cutoff Log 2FC=1.5; p-value<10e^−2. […] The hierarchical clustering of genes and samples was performed using Euclidean distance matrix and Ward's clustering method.
Limiting cell-RNA-seq (LC-RNA-seq) for primary patient LICs. LC-RNA-seq was performed as previously described to determine transcriptome profiles and differentially expressed genes (DEGs) of patient LICs treated with various inhibitors (21). Briefly, patient cells were cultured in the presence of cytokines and treated with vehicle, single agents or drug combination. 300 viable LICs from treated patient samples were sorted directly into SMART-seq lysis buffer with FACSAria Fusion (BD) based on putative stem cell markers CD34^+ CD38^− (22). […] The Clontech SMARTer v4 kit (Takara Bio USA, Inc., Mountain View, CA) was used for preamplifying samples prior to library construction with the Nextera XT DNA Library Prep Kit (Illumina, Inc., San Diego, CA). Samples were sequenced to a depth of 15-20 million 2×150 bp clusters with the Illumina HiSeq 4000 platform. After quality control with CLEAR selection process and size-normalization, DEGs were called with DESeqs with (FDR) adjusted p-value <0.05. Principle component analysis (PCA) plots were created from count tables which were normalized by size and transformed. For pathway analysis, the list of DEGs, containing gene IDs and corresponding expression values, was uploaded into the IPA software (Qiagen) (Ingenuity Pathway Analysis, RRID:SCR_008653). […]
The synthetic lethality of AR-42 and KPT-9274 is conferred by simultaneous suppression of HR and NHEJ pathways in leukemia initiating cells (LICs). […] Treated LICs were analyzed for transcriptional differences and DNA repair mechanisms were highlighted.

[2] = Phase I trial; cited from earlier work
[3] = system: MOLM13 cells; assay: MTS cell viability of shRNA-stable or sgRNA-transfected MOLM13 cells treated with KPT-9274; type: cell-based, human; conditions: MOLM13, 48-hour treatment
Method: FIGS. 7A-7B show representative data for knockdown of selected genes has modest effects on MOLM13 responses to KPT-9274 treatment. […] For the graphs in FIGS. 7A-7B, the responses of parental, shRNA-stable and sgRNA-transfected MOLM13 cells to KPT-9274 treatment (48-hour treatments) are plotted. Cell viability was measured with MTS (y-axis). Results are shown as mean±SEM of 4 technical replicates and 3 biological replicates. Western blotting for knockdown efficiency is shown.
MTS assay. For MTS assays, AML cell lines or patient-derived cells were treated in a 96-well plate at 1-6×10^5 cells per well for 24-72 hours. Patient-derived CD34^+ primary cells were cultured in 96-well plates coated with collagen in the presence of 10 ng/ml IL-3, 10 ng/ml IL-6, 10 ng/ml SCF and 10 ng/ml GM-CSF. Cells were treated with increasing concentrations of KPT-9274 (0 nM to 10 μM) or vehicle control (dimethyl sulfoxide [DMSO]). […] MTS [3-(4,5-dimethylthiazol-2-yl)-5-(3-carboxymethoxyphenyl)-2-(4-sulfophenyl)-2H-tetrazolium](Pro-mega, Madison, WI) was incubated with drug-treated cells according to the manufacturer's instructions. Plates were read by using a BioTek synergy H4 hybrid multimode microplate reader (Thermo Fisher Scientific) at 490 nM. […]

[4] = system: Kasumi-1 cells; assay: MTS cell viability of shRNA-stable Kasumi-1 cells treated with KPT-9274; type: cell-based; conditions: Kasumi-1 scrambled control, 24 hour KPT-9274 treatment
Description: FIGS. 2A-2M show show representative data for genetic depletion of HDAC8 or SIRT6 increases vulnerability of AML cell lines to KPT-9274 treatment. FIGS. 2A-2D show data for knockout efficiency of CDS- and 3′UTR-targeting shRNAs in MOLM13 and Kasumi-1 cells as assessed with Western blotting (FIGS. 2A, 2D) with GAPDH as a loading control. Densitometric quantification of protein band intensity is shown (n=2) in FIGS. 2B, 2E. FIGS. 2E-2H show representative data for depletion of HDAC8 or SIRT6 (as indicated in graphs) and sensitization of AML cell lines to KPT-9274 treatment. Dose-response curves of shRNA-stable MOLM13 and Kasumi-1 cells for 24-hour and 48-hour treatments are plotted. Cell viability was measured with MTS. […] Scrambled or gene-targeting shRNA-stable MOLM13 or Kasumi-1 cells were treated with IC20 dose of KPT-9274 for 48 hour and stained with Annexin/PI for flow cytometry analysis. Data are shown as mean±SEM of % population from duplicates. […] Quantification of the number of colonies formed by shRNA-stable Kasumi-1 and MOLM13 cells in the presence or absence of KPT-9274 in CFU assays. Indicated number of cells were seeded into Methocult and colonies were counted and replated by a double-blind approach after 7 days. […]
MTS assay. […] Plates were read by using a BioTek synergy H4 hybrid multimode microplate reader (Thermo Fisher Scientific) at 490 nM. […]

[5] = in vivo; cited from earlier work

Row | Structure (SMILES) | BRCA1 and XRCC4 expression ([1]; KPT-9274 alone, in some patients) | yields of D-NHEJ transcripts (XRCC6, PRKDC) and B-NHEJ gene PARP1 ([1]; in all patients) | drug-related adverse events [2] | tolerability vs 1st generation NAMPTi [2] | synergy of knockdown of IMPA2, HEXA, PTGS1 and DCPS with KPT-9274 treatment ([3]; MTS (FIG. 7A)) | impact of depletion of HDAC1, HDAC3 or HDAC6 with CRISPR on KPT-9274 sensitivity ([3]; MTS (FIG. 7B)) | IC50 [4] | mRNA levels of HR genes (NBN, RBBP8, RAD51, BRCA1), D-NHEJ genes (XRCC4, XRCC5) and ATM pathway genes (CHEK1, CHEK2) ([1]; AR-42 alone or in combination with KPT-9274, 12 hours) | tolerability of dose [5]
1 | Nc1ccc(/C=C/C(=O)NCc2cc3cc(-c4ccc(C(=O)N5CCC(F)(F)CC5)cc4)cc(-c4ccc(F)cc4)c3o2)cn1 [KPT-9274, (E)-3-(6-aminopyridin-3-yl)-N-[[5-[4-(4,4-difluoropiperidine-1-carbonyl)phenyl]-7-(4-fluorophenyl)-1-benzofuran-2-yl]methyl]prop-2-enamide] | upregulated | decreased | anemia and fatigue | better tolerated | did not demonstrate strong synergies | did not have significant impact | did not achieve IC50 |  | 
2 | CC(C)[C@H](C(=O)Nc1ccc(C(=O)NO)cc1)c1ccccc1 [AR-42, (S)—N-Hydroxy-4-(3-methyl-2-phenylbutanamido)benzamide] |  |  |  |  |  |  |  | downregulated | tolerated
